Converted amounts (≈) assume the structure as drawn.
Molecular target: Intercellular adhesion molecule 1 (Homo sapiens, UniProt P05362)
Test: Inhibition of ICAM1 (unknown origin)
Settings: not given

Sequence of Intercellular adhesion molecule 1 (P05362 whole entry): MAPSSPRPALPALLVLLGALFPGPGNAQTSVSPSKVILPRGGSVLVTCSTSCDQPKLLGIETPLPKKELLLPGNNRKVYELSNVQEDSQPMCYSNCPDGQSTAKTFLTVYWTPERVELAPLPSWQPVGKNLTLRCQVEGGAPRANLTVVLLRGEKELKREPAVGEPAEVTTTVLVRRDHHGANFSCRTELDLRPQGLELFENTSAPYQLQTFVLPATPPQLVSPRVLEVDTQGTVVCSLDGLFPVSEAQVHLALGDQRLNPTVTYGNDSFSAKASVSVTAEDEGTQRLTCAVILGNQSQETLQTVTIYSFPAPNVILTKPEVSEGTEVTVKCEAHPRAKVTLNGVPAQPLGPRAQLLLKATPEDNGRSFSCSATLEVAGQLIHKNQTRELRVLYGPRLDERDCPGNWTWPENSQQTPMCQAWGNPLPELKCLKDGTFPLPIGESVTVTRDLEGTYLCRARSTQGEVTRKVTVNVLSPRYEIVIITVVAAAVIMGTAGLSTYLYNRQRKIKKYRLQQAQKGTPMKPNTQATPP

| SMILES | IC50 |
| --- | --- |
| NC(=O)C1CCN(Cc2ccc3c(c2)Nc2nccnc2S3)CC1 | 270 to 1400 nM |
| CN(C)S(=O)(=O)N1CCN(Cc2ccc3c(c2)Nc2nccnc2S3)CC1 | 270 to 1400 nM |
| CC(CCC1CCN(Cc2ccc3c(c2)Nc2nccnc2S3)CC1)C(=O)O (stereo not drawn) | 420 to 1000 nM |
| NS(=O)(=O)N1CCN(Cc2ccc3c(c2)Nc2nccnc2S3)CC1 | 270 to 1400 nM |
| NC(=O)C1CCCN(Cc2ccc3c(c2)Nc2nccnc2S3)C1 (stereo not drawn) | 270 to 1400 nM |
| CC(C)(CCC1CCN(Cc2ccc3c(c2)Nc2nccnc2S3)CC1)C(=O)O | 420 to 1000 nM |
| O=C(O)CC1CCN(Cc2ccc3c(c2)Nc2nccnc2S3)CC1 | 530 nM |
| CC(=O)N1CCN(Cc2ccc3c(c2)Nc2nccnc2S3)CC1 | 270 to 1400 nM |
| O=S(=O)(NC1CCN(Cc2ccc3c(c2)Nc2nccnc2S3)CC1)c1ccccc1 | 270 to 1400 nM |
| O=C(O)CCC1CCN(Cc2ccc3c(c2)Nc2nccnc2S3)CC1 | 470 nM |

Tested on: Liver
Test: Antioxidant activity in rat liver microsomal membranes assessed as inhibition of Fe(2+)/ascorbate-induced lipid peroxidation
Type: functional, microsomes, microsome
Settings: not given

| SMILES | IC50 |
| --- | --- |
| O=[N+]([O-])c1ccc(N2c3ccncc3Sc3ccncc32)c([N+](=O)[O-])c1 | 107000 nM |
| c1ccc2nc3c(cc2c1)Sc1ccc2ccccc2c1N3 | 2 µg/mL |
| c1ccc2nc3c(cc2c1)Sc1c(ccc2ncccc12)N3 | 16000 nM |
| c1cc2c(cn1)Sc1ccncc1N2CCN1CCCC1 | 125000 nM |
| c1ccc2nc3c(cc2c1)Sc1c(ccc2ccccc12)N3 | 6 µg/mL |
| c1ccc2c3c(cnc2c1)Nc1cnc2ccccc2c1S3 | 1000 nM |
| c1ccc2c(c1)Nc1nc3ccccc3cc1S2 | 2 to 3 µg/mL |
| Clc1ccc2c(c1)Sc1cc3ccccc3nc1N2 | 2 to 3 µg/mL |
| COc1ccc2c(c1)Sc1cc3ccccc3nc1N2 | 2 to 3 µg/mL |

Tested on: Escherichia coli
Test: Antibacterial activity against Escherichia coli
Type: functional
Settings: Escherichia coli

| SMILES | MIC |
| --- | --- |
| C[n+]1cc2c(c3ccccc31)Nc1cccc(O)c1S2.[Cl-] | 14 µg/mL |
| Cc1ncc2c(n1)N=c1c(c3c(c4ccccc14)=Nc1cc([N+](=O)[O-])ccc1O3)S2 | 87.1 to 97.1 µg/mL (≈ 211 to 235 µM) |
| COc1ccc2c(n1)Sc1c3c(c4ccccc4c1=N2)=Nc1cc([N+](=O)[O-])ccc1O3 | 87.1 to 97.1 µg/mL (≈ 203 to 227 µM) |
| COc1ccc2c(n1)Sc1c3c(c4ccccc4c1=N2)=Nc1c(N)ncnc1O3 | 87.1 to 97.1 µg/mL (≈ 218 to 242 µM) |

Tested on: Staphylococcus aureus
Test: Antibacterial activity against Staphylococcus aureus
Type: functional
Settings: not given

| SMILES | MIC |
| --- | --- |
| O=c1[nH]c2ccccc2c2c1Sc1ccccc1N2 | >=200 ug |
| Cn1c(=O)c2c(c3ccccc31)Nc1ccccc1S2 | >=200 ug |
| CCn1c(=O)c2c(c3ccccc31)Nc1ccccc1S2 | >=200 ug |

Tested on: MDA-MB-231
Test: Cytotoxicity against human MDA-MB-231 cells
Type: functional, cell-based
Settings: not given

| SMILES | IC50 |
| --- | --- |
| C#CCN1c2cccc(C(F)(F)F)c2Sc2cnc3ccccc3c21 | 7.71 µg/mL (≈ 21.6 µM) |
| CN(C)CCCN1c2ccc(F)cc2Sc2cnc3ccccc3c21 | 7.43 µg/mL (≈ 21 µM) |
| CSc1ccc2c(c1)Sc1cnc3ccccc3c1N2Cc1ccccc1 | 7.59 µg/mL (≈ 19.6 µM) |
| CN1CCCCC1CCN1c2ccc(F)cc2Sc2cnc3ccccc3c21 (stereo not drawn) | 5.92 to 6.96 µg/mL (≈ 15 to 17.7 µM) |

Molecular target: not listed separately
Test: Displacement of [3H]-diazepam from benzodiazepine receptor in rat brain membranes after 30 mins
Type: cell membranes, Membrane
Settings: not given

| SMILES | IC50 |
| --- | --- |
| N#Cc1c2c(c[nH]c1=O)S(=O)(=O)c1c(Cl)cccc1N2 | 310 to 910 nM |
| N#Cc1c(O)ncc2c1Nc1cc(Cl)ccc1S2 | 310 to 910 nM |
| N#Cc1c2c(c[nH]c1=O)Sc1ccc([N+](=O)[O-])cc1N2 | 310 to 910 nM |
| N#Cc1c2c(c[nH]c1=O)Sc1ccc(N)cc1N2 | 310 to 910 nM |
| N#Cc1c(O)ncc2c1Nc1ccc(Cl)cc1S2 | 310 to 910 nM |
| CN1c2ccccc2Sc2cnc(O)c(C#N)c21 | 310 to 910 nM |
| N#Cc1c(O)ncc2c1Nc1ccccc1S2 | 310 to 910 nM |

Tested on: MCF7
Test: Cytotoxicity against human MCF7 cells
Type: functional, cell-based
Settings: not given

| SMILES | IC50 |
| --- | --- |
| CN(C)CCCN1c2ccncc2Sc2ncccc21 | 11.3 µg/mL (≈ 39.5 µM) |
| C=CCN1c2ccncc2Sc2ncccc21 | 28.4 to 32.9 µg/mL (≈ 118 to 136 µM) |
| c1cnc(N2c3ccncc3Sc3ncccc32)nc1 | 0.73 µg/mL (≈ 2.61 µM) |
| CN1CCCCC1CCN1c2ccncc2Sc2ncccc21 (stereo not drawn) | 28.4 to 32.9 µg/mL (≈ 87 to 101 µM) |
| CN(C)CCCN1c2ccc(F)cc2Sc2cnc3ccccc3c21 | 7.91 µg/mL (≈ 22.4 µM) |
| CSc1ccc2c(c1)Sc1cnc3ccccc3c1N2Cc1ccccc1 | 8.71 µg/mL (≈ 22.5 µM) |
| CN1c2ccncc2Sc2ncccc21 | 28.4 to 32.9 µg/mL (≈ 132 to 153 µM) |
| CN1CCCCC1CCN1c2ccc(F)cc2Sc2cnc3ccccc3c21 (stereo not drawn) | 5.92 to 6.96 µg/mL (≈ 15 to 17.7 µM) |
| C#CCN1c2ccncc2Sc2ncccc21 | 28.4 to 32.9 µg/mL (≈ 119 to 137 µM) |

Tested on: Bacillus cereus
Test: Antibacterial activity against Bacillus cereus
Type: functional, organism-based
Settings: not given

| SMILES | MIC |
| --- | --- |
| Cc1ncc2c(n1)N=c1c(c3c(c4ccccc14)=Nc1cc([N+](=O)[O-])ccc1O3)S2 | 87.1 µg/mL (≈ 211 µM) |
| COc1ccc2c(n1)Sc1c3c(c4ccccc4c1=N2)=Nc1cc([N+](=O)[O-])ccc1O3 | 87.4 µg/mL (≈ 204 µM) |
| COc1ccc2c(n1)Sc1c3c(c4ccccc4c1=N2)=Nc1c(N)ncnc1O3 | 77.1 µg/mL (≈ 193 µM) |

Tested on: C32
Test: Cytotoxicity against human C32 cells
Type: functional, cell-based
Settings: not given

| SMILES | IC50 |
| --- | --- |
| CN(C)CCCN1c2ccncc2Sc2ncccc21 | 6.3 µg/mL (≈ 22 µM) |
| C(#CCN1c2ccncc2Sc2ccncc21)CN1CCCCC1 | 24.8 to 29.2 µg/mL (≈ 73.7 to 86.8 µM) |
| CCN(C)CC#CCN1c2ccncc2Sc2ccncc21 | 24.8 to 29.2 µg/mL (≈ 79.9 to 94.1 µM) |
| CCN(CC)CC#CCN1c2ccncc2Sc2ccncc21 | 24.8 to 29.2 µg/mL (≈ 76.4 to 90 µM) |

— ChEMBL document CHEMBL4138122, “Azaphenothiazines - promising phenothiazine derivatives. An insight into nomenclature, synthesis, structure elucidation and biological properties” (Eur J Med Chem, 2017)
